One experiment concerns the target T1, fatty acyl CoA:cholesterol acyl transferase (ACAT) (Rattus norvegicus, UniProt O70536).
T1 construct: Rat adrenals were homogenized in 0.2M monobasic potassium phosphate buffer; from tissue; host or cells: rat adrenals, 1000 x g supernatant containing the microsomal fraction
T1 sequence (O70536 1-545): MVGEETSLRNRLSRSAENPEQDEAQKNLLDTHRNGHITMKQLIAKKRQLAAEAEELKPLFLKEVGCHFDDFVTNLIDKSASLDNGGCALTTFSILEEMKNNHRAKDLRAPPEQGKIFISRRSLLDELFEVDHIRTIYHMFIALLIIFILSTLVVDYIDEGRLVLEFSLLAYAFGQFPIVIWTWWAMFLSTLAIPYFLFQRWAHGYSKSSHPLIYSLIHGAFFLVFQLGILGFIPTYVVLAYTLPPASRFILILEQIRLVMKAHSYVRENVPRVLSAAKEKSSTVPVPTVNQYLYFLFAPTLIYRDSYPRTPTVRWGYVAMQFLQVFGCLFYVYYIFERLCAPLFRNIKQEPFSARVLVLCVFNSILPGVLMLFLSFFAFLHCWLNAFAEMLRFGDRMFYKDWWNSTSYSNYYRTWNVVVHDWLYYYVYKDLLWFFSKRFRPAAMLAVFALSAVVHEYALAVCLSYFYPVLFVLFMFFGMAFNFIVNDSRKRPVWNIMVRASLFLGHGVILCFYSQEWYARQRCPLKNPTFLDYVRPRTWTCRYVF
In words: In vitro inhibition of fatty acyl CoA:cholesterol acyl transferase (ACAT), rat adrenal supernatant. The settings on record: test compound final concentration 5.2 g./ml. (so in the source), pH 7.4, 37° C., 10 minutes. The experiment is classed as biochemical. Here is the method: (§1) The compounds of the present invention were assayed for two types of biological activity related to their potential use as antiatherosclerotic agents. Compounds were tested in vitro for their ability to inhibit the enzyme fatty acyl CoA:cholesterol acyl transferase (ACAT) and in vivo for serum hypolipidemic activity as measured by their ability to inhibit lipid absorption in rats. The compounds were tested for their ability to inhibit ACAT according to the following procedure:
Rat adrenals were homogenized in 0.2M monobasic potassium phosphate buffer, pH 7.4, and centrifuged at 1000 times gravity for 15 minutes at 5° C. The supernatant, containing the microsomal fraction, served as the source of the cholesterol-esterifying enzyme, fatty acyl CoA:cholesterol acyl transferase (ACAT). A mixture comprising 50 parts of adrenal supernatant, 10 parts of albumin (BSA) (50 mg./ml.), 3 parts of test compound (final concentration […].) and 500 parts of buffer was preincubated at 37° C. for 10 minutes. After treatment with 20 parts of oleoyl CoA(^14 C-[…]) the mixture was incubated at 37° C. for 10 minutes. A control mixture, omitting the test compound, was prepared and treated in the same manner. The lipids from the incubation mixture were extracted into an organic solvent and separated by thin-layer chromatography. The cholesteryl ester fraction was counted in a scintillation counter. This procedure is a modification of that described by Hashimoto, et al., Life Scie., 12 (Part II), 1-12 (1973).
In the case of `CCCCN(Cc1ccccc1)C(=O)N(CCCC)Cc1ccccc1` [1,3-Dibenzyl-1,3-di-(n-butyl)urea], the “% Inhibition (ACAT)” value is 95.4%.
The same measure, in the same setting: the value for `CCCCN(Cc1ccccc1)C(=O)N(Cc1ccccc1)c1ccccc1` [1,3-Dibenzyl-1-(n-butyl)-3-phenylurea] was 81.8%.
Still for that read-out and setting: the value for `CCCCN(Cc1ccccc1)C(=O)N(c1ccc2ccccc2c1)c1ccc2ccccc2c1` [1-Benzyl-1-(n-butyl)-3,3-di(2-naphthyl)urea] was 93.2%; that for `CCCCN(Cc1ccccc1)C(=O)N(c1ccccc1)c1ccccc1` [1-Benzyl-1-(n-butyl)-3,3-diphenylurea] was 75.9%.
In the case of `CCCCN(Cc1ccccc1)C(=O)N(c1ccccc1)c1cccc2ccccc12` [1-Benzyl-1-(n-butyl)-3-(1-naphthyl)-3-phenylurea], the “% Inhibition (ACAT)” value was 76.3%.
As for `CCCCN(Cc1ccccc1)C(=O)N(c1ccccc1)c1ccc2ccccc2c1` [1-Benzyl-1-(n-butyl)-3-(2-naphthyl)-3-phenylurea], the “% Inhibition (ACAT)” value worked out at 83.6%.
Same read-out and setting: the value for `CCCCN(Cc1ccccc1)C(=O)N(c1cccc(Cl)c1)c1ccc2ccccc2c1` [1-Benzyl-1-(n-butyl)-3-(3-chlorophenyl)-3-(2-naphthyl)urea] was 82.7%; that for `CCCCN(Cc1ccccc1)C(=O)N(c1ccccc1)c1cccc(Cl)c1` [1-Benzyl-1-(n-butyl)-3-(3-chlorophenyl)-3-phenylurea] was 72.3%; that for `CCCCN(Cc1ccccc1)C(=O)N(c1ccccc1)c1cccc(OC)c1` [1-Benzyl-1-(n-butyl)-3-(3-methoxyphenyl)-3-phenylurea] was 82.5%.
For `CCCCN(Cc1ccccc1)C(=O)N(c1ccccc1)c1cccc(C)c1` [1-Benzyl-1-(n-butyl)-3-(3-methylphenyl)-3-phenylurea], the “% Inhibition (ACAT)” value amounted to 82.0%.
Regarding `CCCCN(Cc1ccccc1)C(=O)N(c1ccccc1)c1ccc(OC(C)C)cc1` [1-Benzyl-1-(n-butyl)-3-(4-isopropoxyphenyl)-3-phenylurea], the “% Inhibition (ACAT)” value is 77.8%.

The next experiment has as its system cholesterol absorption. Nature of the experiment: Inhibition of cholesterol absorption in cholesterol/cholic acid fed rats (serum or liver cholesterol lowering). The settings on record: 0.03% of the diet; 1% cholesterol: 0.5% cholic acid diet for 2 weeks; lowering of serum or liver cholesterol relative to control rats. The experiment is classed as in vivo, male Sprague-Dawley rats. As for the experimental part: as §1
Inhibition of cholesterol absorption was determined by feeding male Sprague-Dawley rats, weighing 150-170 g., a 1% cholesterol: 0.5% cholic acid diet for 2 weeks. The diet was contained compounds being tested at a dose of 0.03% of the diet. Control rats were fed the same diet without any compound. At the end of the test, the rats were sacrificed by decapitation. Blood is collected, centrifuged at 1.5 kg times gravity for 10 minutes at 4° C., and the serum is then analyzed for cholesterol and triglycerides enzymatically by the method of Trinder, P., Analyst, 77, 321 (1952) on a Centrifichem 400 Analyzer. […] The resulting neutral sterols are extracted with petroleum ether and extract analyzed for cholesterol. The effectiveness of the compound in inhibiting cholesterol absorption is measured by the lowering of either serum cholesterol or liver cholesterol relative the values for control rats.
With `CCCCN(Cc1ccccc1)C(=O)N(c1ccccc1)c1cccc(OC)c1` [1-Benzyl-1-(n-butyl)-3-(3-methoxyphenyl)-3-phenylurea], the “Result (inhibition of cholesterol absorption)” value is “Active”.

(Values after patent publication US4473579A, “Antiatherosclerotic tetrasubstituted ureas and thioureas” (American Cyanamid Company, priority 1982, dated 1984).)
